Reference: patent US4656166A, “Antibiotic compounds derived from cephalosporins, process for their production and pharmaceutical compositions” (Sanofi, priority 1983, dated 1987)
Values after ≈ are worked out from the molar mass of the structure shown.

How the values were obtained:
Format in all cases: cell-based
Escherichia coli SOL 90 = assay: MIC, in vitro dilution method, Escherichia coli SOL 90 (Table III); conditions: SOL90; Escherichia coli SOL 90; dilution method; read-out: MIC
Excerpt: (§1) The products of the invention have been studied as regards their pharmacological properties and, more especially, bacteriostatic action. This has been determined in vitro by the dilution method, and the study was on Gram negative strains.
(§2) Results, expressed in minimum inhibiting concentrations (MIC-- μg/ml), are collected in the following table (Table III).

Enterobacter RO 154 = assay: MIC, in vitro dilution method, Enterobacter RO 154 (Table III); conditions: RO154; Enterobacter RO 154; dilution method; read-out: MIC
Excerpt: as §1, §2

Pseudomonas RL 112 = assay: MIC, in vitro dilution method, Pseudomonas RL 112 (Table III); conditions: RL112
Excerpt: as §1, §2

[1] = system: Proteus vulgaris RL 99 bis; assay: MIC, in vitro dilution method, Proteus vulgaris RL 99 bis (Table III); conditions: RL99BIS; Proteus vulgaris RL 99 bis; dilution method; read-out: MIC
Excerpt: as §1, §2

Serratia RL 72 = assay: MIC, in vitro dilution method, Serratia RL 72 (Table III); conditions: RL72
Excerpt: as §1, §2

Citrobacter RL 49 = assay: MIC, in vitro dilution method, Citrobacter RL 49 (Table III); conditions: RL49; Citrobacter RL 49; dilution method; read-out: MIC
Excerpt: as §1, §2

Klebsiella RO 30 = assay: MIC, in vitro dilution method, Klebsiella RO 30 (Table III); conditions: RO30; Klebsiella RO 30; dilution method; read-out: MIC
Excerpt: as §1, §2

| Compound | MIC (Escherichia coli SOL 90) | MIC (Enterobacter RO 154) | MIC (Pseudomonas RL 112) | MIC [1] | MIC (Serratia RL 72) | MIC (Citrobacter RL 49) | MIC (Klebsiella RO 30) |
| --- | --- | --- | --- | --- | --- | --- | --- |
| C[C@@H](N)C(=O)OCC1=C(C(=O)O)N2C(=O)C(NC(=O)/C(=N\OC(C)(C)C(=O)O)c3csc(N)n3)C2[S+]([O-])C1 (some centres unmarked) [41 891] | 0.5 mg/L (≈ 0.873 µM) | 8 mg/L (≈ 14 µM) | 8 mg/L (≈ 14 µM) | 0.5 mg/L (≈ 0.873 µM) | 4 mg/L (≈ 6.99 µM) | 0.5 mg/L (≈ 0.873 µM) | 0.5 mg/L (≈ 0.873 µM) |
| Nc1nc(/C(=N/OC2(C(=O)O)CCC2)C(=O)NC2C(=O)N3C(C(=O)O)=C(COC(=O)CC4CCCNC4)C[S+]([O-])C23)cs1 (centres unmarked) [42 472] | 0.25 mg/L (≈ 0.391 µM) | ≤ 0.125 mg/L | 4 mg/L (≈ 6.26 µM) | ≤ 0.125 mg/L | 0.25 mg/L (≈ 0.391 µM) | ≤ 0.125 mg/L | ≤ 0.125 mg/L |
| Cc1ccc(C(=O)OCC2=C(C(=O)O)N3C(=O)C(NC(=O)/C(=N\OC(C)(C)C(=O)O)c4csc(N)n4)C3[S+]([O-])C2)cc1CN (centres unmarked) [42 379] | 0.25 mg/L (≈ 0.385 µM) | ≤ 0.125 mg/L | 8 mg/L (≈ 12.3 µM) | ≤ 0.125 mg/L | 0.5 mg/L (≈ 0.771 µM) | ≤ 0.125 mg/L | ≤ 0.125 mg/L |
| CCC(C)C(N)C(=O)OCC1=C(C(=O)O)N2C(=O)C(NC(=O)C(=NOC(C)(C)C(=O)O)c3csc(N)n3)C2[S+]([O-])C1 (centres unmarked) [41 860] | 2 mg/L (≈ 3.25 µM) | 8 mg/L (≈ 13 µM) | 16 mg/L (≈ 26 µM) | 0.5 mg/L (≈ 0.813 µM) | 4 mg/L (≈ 6.51 µM) | 1 mg/L (≈ 1.63 µM) | 0.5 mg/L (≈ 0.813 µM) |
| CNCc1ccc(C(=O)OCC2=C(C(=O)O)N3C(=O)C(NC(=O)/C(=N\OC4(C(=O)O)CCC4)c4csc(N)n4)C3[S+]([O-])C2)cc1 (centres unmarked) [42 464] | ≤ 0.125 mg/L | ≤ 0.125 mg/L | 4 mg/L (≈ 6.05 µM) | ≤ 0.125 mg/L | 0.5 mg/L (≈ 0.757 µM) | ≤ 0.125 mg/L | ≤ 0.125 mg/L |
| NC[C@H]1CC[C@H](C(=O)OCC2=C(C(=O)O)N3C(=O)C(NC(=O)/C(=N\OCC(=O)O)c4csc(N)n4)C3[S+]([O-])C2)CC1 (some centres unmarked) [42 211] | ≤ 0.12 mg/L | ≤ 0.12 mg/L | 64 mg/L (≈ 104 µM) | ≤ 0.12 mg/L | ≤ 0.12 mg/L | ≤ 0.12 mg/L | ≤ 0.12 mg/L |
| CC(C)(O/N=C(\C(=O)NC1C(=O)N2C(C(=O)O)=C(COC(=O)C3(N)CCCCC3)C[S+]([O-])C12)c1csc(N)n1)C(=O)O (centres unmarked) [41 976] | 1 mg/L (≈ 1.6 µM) | 8 mg/L (≈ 12.8 µM) | 8 mg/L (≈ 12.8 µM) | 0.25 mg/L (≈ 0.399 µM) | 8 mg/L (≈ 12.8 µM) | 0.5 mg/L (≈ 0.798 µM) | 0.5 mg/L (≈ 0.798 µM) |
| Cc1c(CN)cccc1C(=O)OCC1=C(C(=O)O)N2C(=O)C(NC(=O)C(=NOC3(C(=O)O)CCC3)c3csc(N)n3)C2[S+]([O-])C1 (centres unmarked) [42 540] | 0.25 mg/L (≈ 0.378 µM) | ≤ 0.125 mg/L | 4 mg/L (≈ 6.05 µM) | ≤ 0.125 mg/L | 0.25 mg/L (≈ 0.378 µM) | 0.125 mg/L (≈ 0.189 µM) | ≤ 0.125 mg/L |
| NCc1cccc(C(=O)SCC2=C(C(=O)O)N3C(=O)C(NC(=O)C(=NOC4(C(=O)O)CCC4)c4csc(N)n4)C3[S+]([O-])C2)c1 (centres unmarked) [compound 42532] | 0.5 mg/L (≈ 0.754 µM) | 0.5 mg/L (≈ 0.754 µM) | 8 mg/L (≈ 12.1 µM) | ≤ 0.125 mg/L | 1 mg/L (≈ 1.51 µM) | 0.25 mg/L (≈ 0.377 µM) | 0.25 mg/L (≈ 0.377 µM) |
| CC(C)[C@H](N)C(=O)OCC1=C(C(=O)O)N2C(=O)C(NC(=O)/C(=N\OC(C)(C)C(=O)O)c3csc(N)n3)C2[S+]([O-])C1 (some centres unmarked) [41 806] | 1 mg/L (≈ 1.66 µM) | 8 mg/L (≈ 13.3 µM) | 8 mg/L (≈ 13.3 µM) | 0.5 mg/L (≈ 0.832 µM) | 4 mg/L (≈ 6.66 µM) | 1 mg/L (≈ 1.66 µM) | 0.5 mg/L (≈ 0.832 µM) |
| CC(C)(O/N=C(\C(=O)NC1C(=O)N2C(C(=O)O)=C(COC(=O)CCCCCCCN)C[S+]([O-])C12)c1csc(N)n1)C(=O)O (centres unmarked) [41 856] | 0.5 mg/L (≈ 0.778 µM) | 4 mg/L (≈ 6.22 µM) | 16 mg/L (≈ 24.9 µM) | ≤ 0.12 mg/L | 2 mg/L (≈ 3.11 µM) | 2 mg/L (≈ 3.11 µM) | 0.25 mg/L (≈ 0.389 µM) |
| CC(C)C[C@H](N)C(=O)OCC1=C(C(=O)O)N2C(=O)C(NC(=O)/C(=N\OC(C)(C)C(=O)O)c3csc(N)n3)C2[S+]([O-])C1 (some centres unmarked) [41 859] | 1 mg/L (≈ 1.63 µM) | 8 mg/L (≈ 13 µM) | 16 mg/L (≈ 26 µM) | 0.25 mg/L (≈ 0.407 µM) | 4 mg/L (≈ 6.51 µM) | 2 mg/L (≈ 3.25 µM) | 0.5 mg/L (≈ 0.813 µM) |
| Nc1nc(C(=NOC2(C(=O)O)CCC2)C(=O)NC2C(=O)N3C(C(=O)O)=C(CSC(=O)C4CCNCC4)C[S+]([O-])C23)cs1 (centres unmarked) [compound 42219] | 0.5 mg/L (≈ 0.78 µM) | 0.5 mg/L (≈ 0.78 µM) | 4 mg/L (≈ 6.24 µM) | ≤ 0.12 mg/L | 1 mg/L (≈ 1.56 µM) | ≤ 0.12 mg/L | 0.5 mg/L (≈ 0.78 µM) |
| CC(O/N=C(\C(=O)NC1C(=O)N2C(C(=O)O)=C(COC(=O)[C@H]3CC[C@H](CN)CC3)C[S+]([O-])C12)c1csc(N)n1)C(=O)O (some centres unmarked) [42 217] | ≤ 0.12 mg/L | ≤ 0.12 mg/L | 16 mg/L (≈ 25.5 µM) | ≤ 0.12 mg/L | 0.25 mg/L (≈ 0.399 µM) | ≤ 0.12 mg/L | ≤ 0.12 mg/L |
| Cc1cc(C)c(C(=O)OCC2=C(C(=O)O)N3C(=O)C(NC(=O)C(=NOC4(C(=O)O)CCC4)c4csc(N)n4)C3[S+]([O-])C2)c(C)c1CN (centres unmarked) [42 542] | 0.5 mg/L (≈ 0.726 µM) | 0.5 mg/L (≈ 0.726 µM) | 8 mg/L (≈ 11.6 µM) | ≤ 0.125 mg/L | 0.5 mg/L (≈ 0.726 µM) | 0.5 mg/L (≈ 0.726 µM) | ≤ 0.25 mg/L |
| CC(O/N=C(\C(=O)NC1C(=O)N2C(C(=O)O)=C(COC(=O)C3CCNCC3)C[S+]([O-])C12)c1csc(N)n1)C(=O)O (centres unmarked) [42 215] | ≤ 0.12 mg/L | ≤ 0.12 mg/L | 8 mg/L (≈ 13.4 µM) | ≤ 0.12 mg/L | 0.25 mg/L (≈ 0.418 µM) | ≤ 0.12 mg/L | ≤ 0.12 mg/L |
| CNCc1cccc(C(=O)OCC2=C(C(=O)O)N3C(=O)C(NC(=O)/C(=N\OC(C)(C)C(=O)O)c4csc(N)n4)C3[S+]([O-])C2)c1 (centres unmarked) [42 537] | 0.25 mg/L (≈ 0.385 µM) | 0.25 mg/L (≈ 0.385 µM) | 8 mg/L (≈ 12.3 µM) | ≤ 0.125 mg/L | 0.5 mg/L (≈ 0.771 µM) | 0.25 mg/L (≈ 0.385 µM) | 0.25 mg/L (≈ 0.385 µM) |
| CC(C)(O/N=C(\C(=O)NC1C(=O)N2C(C(=O)O)=C(COC(=O)c3cccc(NC(=O)CCN)c3)C[S+]([O-])C12)c1csc(N)n1)C(=O)O (centres unmarked) [42 465] | ≤ 0.125 mg/L | 0.5 mg/L (≈ 0.723 µM) | 8 mg/L (≈ 11.6 µM) | ≤ 0.125 mg/L | 2 mg/L (≈ 2.89 µM) | ≤ 0.125 mg/L | 0.5 mg/L (≈ 0.723 µM) |
| COc1cc(C(=O)OCC2=C(C(=O)O)N3C(=O)C(NC(=O)/C(=N\OC(C)(C)C(=O)O)c4csc(N)n4)C3[S+]([O-])C2)ccc1CN (centres unmarked) [42 461] | 0.25 mg/L (≈ 0.376 µM) | ≤ 0.125 mg/L | 8 mg/L (≈ 12 µM) | ≤ 0.125 mg/L | 2 mg/L (≈ 3.01 µM) | ≤ 0.125 mg/L | ≤ 0.125 mg/L |
| CNCCCCC(=O)OCC1=C(C(=O)O)N2C(=O)C(NC(=O)/C(=N\OC(C)(C)C(=O)O)c3csc(N)n3)C2[S+]([O-])C1 (centres unmarked) [42 029] | 0.25 mg/L (≈ 0.407 µM) | 2 mg/L (≈ 3.25 µM) | 8 mg/L (≈ 13 µM) | ≤ 0.12 mg/L | 0.5 mg/L (≈ 0.813 µM) | 0.25 mg/L (≈ 0.407 µM) | 0.25 mg/L (≈ 0.407 µM) |
| CC(CCN)C(=O)OCC1=C(C(=O)O)N2C(=O)C(NC(=O)C(=NOC3(C(=O)O)CCC3)c3csc(N)n3)C2[S+]([O-])C1 (centres unmarked) [42 209] | 0.25 mg/L (≈ 0.408 µM) | ≤ 0.12 mg/L | 4 mg/L (≈ 6.53 µM) | ≤ 0.12 mg/L | 0.5 mg/L (≈ 0.816 µM) | ≤ 0.12 mg/L | 0.25 mg/L (≈ 0.408 µM) |
| Nc1nc(/C(=N/OC2(C(=O)O)CCC2)C(=O)NC2C(=O)N3C(C(=O)O)=C(COC(=O)CC4CCNCC4)C[S+]([O-])C23)cs1 (centres unmarked) [42 473] | 0.25 mg/L (≈ 0.391 µM) | ≤ 0.125 mg/L | 4 mg/L (≈ 6.26 µM) | ≤ 0.125 mg/L | 0.25 mg/L (≈ 0.391 µM) | ≤ 0.125 mg/L | ≤ 0.125 mg/L |
| Nc1nc(/C(=N/OC2(C(=O)O)CCC2)C(=O)NC2C(=O)N3C(C(=O)O)=C(COC(=O)CC4CCCCN4)C[S+]([O-])C23)cs1 (centres unmarked) [42 471] | 0.5 mg/L (≈ 0.783 µM) | 0.25 mg/L (≈ 0.391 µM) | 8 mg/L (≈ 12.5 µM) | ≤ 0.125 mg/L | 0.5 mg/L (≈ 0.783 µM) | 0.25 mg/L (≈ 0.391 µM) | 0.25 mg/L (≈ 0.391 µM) |
